Values quoted from earlier work, collected in patent US20060240450A1, “Genetic analysis for stratification of cancer risk” (priority 2001, published 2006).
Structures can show the parent of a compound that is named as a salt.

System: uterus and breast tissue
Conditions: preliminary clinical data (through 30 months)

SMILES: O=C(c1ccc(OCCN2CCCCC2)cc1)c1c(-c2ccc(O)cc2)sc2cc(O)ccc12 [Raloxifene HCl, methanone, [6-hydroxy-2-(4-hydroxyphenyl)benzo[b]thien-3-yl]-[4-[2-(1-piperidinyl)ethoxy]phenyl]-hydrochloride]
- estrogen-like effects on uterus and breast tissue: lacks estrogen-like effects
